Structures are written as SMILES. pIC50, pKi: −log10 of the molar value.

A short description of series [1]: Half life in po dosed human administered as qd. The class given is ADME, organism-based. The settings on record: in vivo.
Series [2] deals with T1, Neutrophil elastase (Homo sapiens, UniProt P08246).
T1 sequence (P08246 whole entry): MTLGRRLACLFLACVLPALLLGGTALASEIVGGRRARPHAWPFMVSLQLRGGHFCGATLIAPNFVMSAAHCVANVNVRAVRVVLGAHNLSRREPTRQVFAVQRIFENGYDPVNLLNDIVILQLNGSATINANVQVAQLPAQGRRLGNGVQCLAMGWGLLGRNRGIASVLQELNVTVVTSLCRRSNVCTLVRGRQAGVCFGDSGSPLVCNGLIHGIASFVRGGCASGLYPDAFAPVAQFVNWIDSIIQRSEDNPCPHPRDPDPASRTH
The series is described as follows: Inhibition of human neutrophil elastase using MeO-Succ-Ala-Ala-Pro-Val-AMC as substrate after 30 mins by fluorescence assay.

Series [3] can be described thus: Half life in human hepatocytes at 1 uM by LC/MS-MS analysis.
Series [4] has as its target T2, Neutrophil elastase (Homo sapiens) (UniProt P08246).
T2 sequence (whole entry): T1 sequence (P08246 whole entry)
The settings on record: Blood.
Description: (§1) Inhibition of neutrophil elastase in human whole blood using MeO-Succ-Ala-Ala-Pro-Val-pNA as substrate after 30 mins by colorimetric analysis

The species entered for series [5] is Homo sapiens. The series is described as follows: Selectivity ratio of IC50 for human chymotrypsin to IC50 for human neutrophil elastase.
The species named for series [6] is Homo sapiens. In words: Selectivity ratio of IC50 for human PR3 to IC50 for human neutrophil elastase.
Series [7] is described as follows: Selectivity ratio of IC50 for mouse neutrophil elastase to IC50 for human neutrophil elastase.
The nature of series [8]: Selectivity ratio of IC50 for rat neutrophil elastase to IC50 for human neutrophil elastase.
Series [9] deals with T1, Neutrophil elastase. In words: Inhibition of human neutrophil elastase using MeO-Suc-Ala-Ala-Pro-Val 7-amido-4-methylcoumarin as substrate preincubated for 15 mins followed by substrate addition measured after 90 mins.
The species entered for series [10] is Homo sapiens. In words: Selectivity ratio of IC50 for human trypsin to IC50 for human neutrophil elastase.
Series [11] is filed under the species Homo sapiens. In words: Selectivity ratio of IC50 for human CatG to IC50 for human neutrophil elastase.
Series [12] concerns Homo sapiens. The series is described as follows: Inhibition of sputum neutrophil count in cystic fibrosis patient at 60 mg/kg, po bid measured at 24 hrs relative to control. The class given is functional.
Series [13] is described as follows: Selectivity ratio of IC50 for porcine pancreatic elastase to IC50 for human neutrophil elastase.
Series [14] has as its target T1, Neutrophil elastase.
Description: as §1
The target in series [15] is T1, Neutrophil elastase. In words: Inhibition of neutrophil elastase in human plasma using MeOSuc-Ala-Ala-Pro-Val-AMC as substrate by fluorescence assay.
The target of series [16] is T1, Neutrophil elastase. In words: Inhibition of human neutrophil elastase.
Another series concerns the target Pancreatic elastase (Sus scrofa, UniProt P08419+P00772). The series is described as follows: Inhibition of porcine pancreatic elastase using as succinyl-Ala-Ala-Ala-p-nitroanilide as substrate measured every 1 min by spectrophotometric analysis. The class given is protein assay.

A word on the half-life: it is the time in which the quantity being followed falls by half. Low values mean fast loss, high ones slow loss. As to `CC1=C(C#N)[C@@H](c2ccc(C#N)cc2S(C)(=O)=O)N(C)C(=O)N1c1cccc(C(F)(F)F)c1`, the half-life in series [1] was 120 h.
Usually pIC50 stands for −log10 of the IC50, conventionally taken in molar units. `COC(=O)C1=C(C)N(c2cccc(C(F)(F)F)c2)c2n[nH]c(=O)n2[C@@H]1c1ccc(C#N)cc1CCCN(C)C` had a pIC50 at Neutrophil elastase [2] of over 7.70.
`CS(=O)(=O)c1cc(C#N)ccc1[C@@H]1C2=C(CCC2=O)N(c2cccc(C(F)F)c2)C(=O)N1C(=O)NC1CC1` returned a half-life at 1 µM in series [3] of over 2.17 h.
`CC(C)C[C@H]1C(=O)N(COC(=O)Cc2ccccc2Nc2c(Cl)cccc2Cl)S(=O)(=O)N1C` came in with a K in series [4] of 9.8 ×10⁵ /M/s.
As usually defined, the pKi is −log10 of the Ki, conventionally taken in molar units. A higher pKi goes with a small Ki. One may read the inhibition in vivo as the relative decrease from the control value, in per cent. Turning to `Cc1c(-c2ccnn2C)cc(C(=O)NCc2ccc(S(C)(=O)=O)cn2)c(=O)n1-c1cccc(C(F)(F)F)c1`, the Ratio IC50 in the series filed under Homo sapiens [5] is over 2000; in the series filed under Homo sapiens [6] it was over 1900; in series [7] it was 24; in series [8], 18; in the series filed under Homo sapiens [10], over 2000; in the series filed under Homo sapiens [11] it was over 680. The Ratio IC50 in series [13] was over 2000. On Neutrophil elastase [9], this molecule showed a negative-log Ki (pKi) of 7.92. Besides, the inhibition in vivo at 60 mg/kg in the series on Homo sapiens [12] worked out at 50%.
At Neutrophil elastase [14], `CCc1cc(OC)cc2nc(-c3cccnc3N3CC[C@H](N(C)C)C3)oc(=O)c12` showed a negative-log IC50 (pIC50) of 8.15.
Take `CS(=O)(=O)c1cc(C#N)ccc1[C@@H]1C2=C(CCC2=O)N(c2cccc(C(F)(F)F)c2)C(=O)N1CC#N`: the pIC50 against Neutrophil elastase [2] and against Neutrophil elastase [15] was over 9.00 throughout. Further, the half-life at 1 µM in series [3] is over 2.17 h.
As for `Cc1c(-c2ccnn2-c2ccc(C#N)cc2)cn2nc(NC(=O)CN(C)C)nc2c1-c1cccc(C(F)(F)F)c1`, at Neutrophil elastase [16], the pIC50 was over 7.70.
The IC50 is the concentration that gives 50% inhibition. Read a low IC50 as higher potency. Turning to `CC(C)(C)C(=O)Oc1ccc(S(=O)(=O)Nc2ccccc2C(=O)NCC(=O)[O-])cc1.[Na+]`, on Pancreatic elastase, the IC50 is 5600 nM.
The molecule `N#Cc1ccc([C@H]2NC(=O)N(c3cccc(C(F)(F)F)c3)C3=C2C(=O)CC3)cc1` registered a half-life at 1 µM in [3] of over 2.17 h.
As for `CNC(=O)N1C(=O)N(c2cccc(C(F)(F)F)c2)C2=C(C(=O)CC2)[C@H]1c1ccc(C#N)cc1S(C)(=O)=O`, the pIC50 at Neutrophil elastase [2] and on Neutrophil elastase [15] was over 9.00 throughout. The half-life at 1 µM in series [3] was over 2.17 h.

The values are drawn from ChEMBL document CHEMBL3616465, “Neutrophil elastase inhibitors for the treatment of (cardio)pulmonary diseases: Into clinical testing with pre-adaptive pharmacophores” (Bioorg Med Chem Lett, 2015).
